Source: ChEMBL document CHEMBL1152197, “Convergent synthesis and cruzain inhibitory activity of novel 2-(N'-benzylidenehydrazino)-4-trifluoromethyl-pyrimidines” (Bioorg Med Chem, 2008)

Columns and labels:
[1] = target: Cruzipain (Trypanosoma cruzi) (UniProt P25779); assay: Inhibition of Trypanosoma cruzi C-terminal truncated cruzain expressed in DH5alpha Escherichia coli at 100 uM by well-microplate spectrophotometry
Cruzipain = Cruzipain (Trypanosoma cruzi, UniProt P25779); assay: Inhibition of Trypanosoma cruzi C-terminal truncated cruzain expressed in DH5alpha Escherichia coli by well-microplate spectrophotometry
Sequence of Cruzipain (P25779 whole entry, the tested form may be a part): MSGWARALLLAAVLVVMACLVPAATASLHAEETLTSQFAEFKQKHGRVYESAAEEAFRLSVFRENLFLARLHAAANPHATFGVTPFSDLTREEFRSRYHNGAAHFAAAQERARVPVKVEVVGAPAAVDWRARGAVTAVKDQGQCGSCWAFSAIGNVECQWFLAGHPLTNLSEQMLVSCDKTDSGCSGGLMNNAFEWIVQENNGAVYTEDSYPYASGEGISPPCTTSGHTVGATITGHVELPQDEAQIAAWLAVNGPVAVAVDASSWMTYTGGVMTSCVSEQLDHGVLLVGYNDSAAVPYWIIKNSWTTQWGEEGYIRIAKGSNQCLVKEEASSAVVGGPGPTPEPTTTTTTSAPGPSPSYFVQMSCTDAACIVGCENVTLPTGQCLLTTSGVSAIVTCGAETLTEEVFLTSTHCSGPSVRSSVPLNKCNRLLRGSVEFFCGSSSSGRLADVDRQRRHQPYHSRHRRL

Sequence of Cruzipain (Trypanosoma cruzi) (P25779 123-467 limits assumed): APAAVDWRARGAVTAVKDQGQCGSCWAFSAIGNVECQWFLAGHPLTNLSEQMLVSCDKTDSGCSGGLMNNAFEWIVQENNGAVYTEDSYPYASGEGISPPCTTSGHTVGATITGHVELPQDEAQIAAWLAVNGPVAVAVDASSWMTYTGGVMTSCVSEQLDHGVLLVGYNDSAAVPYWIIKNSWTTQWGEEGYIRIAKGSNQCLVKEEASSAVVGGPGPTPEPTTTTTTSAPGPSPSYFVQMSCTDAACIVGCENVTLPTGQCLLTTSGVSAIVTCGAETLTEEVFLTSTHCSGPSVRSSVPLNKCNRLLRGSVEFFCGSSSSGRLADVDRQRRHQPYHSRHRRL

Row | SMILES | inhibition [1] [%] | IC50 (Cruzipain) [µM]
1 | Cc1cc(C(F)(F)F)nc(N/N=C/c2ccc(Cl)cc2)n1 | 60 | 100
2 | O=[N+]([O-])c1ccc(/C=N/Nc2nccc(C(F)(F)F)n2)cc1 | 50 | 100
3 | Cc1ccccc1/C=N/Nc1nccc(C(F)(F)F)n1 | 45 | > 100
4 | COc1ccc(/C=N/Nc2nccc(C(F)(F)F)n2)cc1 | 40 | > 100
5 | COc1ccccc1/C=N/Nc1nc(C)cc(C(F)(F)F)n1 | 20 | > 150
6 | Cc1ccc(/C=N/Nc2nccc(C(F)(F)F)n2)cc1 | 40 | > 100
7 | Cc1cc(C(F)(F)F)nc(N/N=C/c2ccccc2C)n1 | 45 | > 100
8 | FC(F)(F)c1ccnc(N/N=C/c2ccc(Cl)cc2)n1 | 80 | 85
9 | FC(F)(F)c1ccnc(N/N=C/c2ccccc2)n1 | 30 | > 150
